Experimental data: ChEMBL document CHEMBL3352227, “Synthesis, antimycobacterial and antibacterial evaluation of l-[(1R, 2S)-2-fluorocyclopropyl]fluoroquinolone derivatives containing an oxime functional moiety” (Eur J Med Chem, 2014)
Converted amounts (≈) assume the structure as drawn.

Columns and labels:
Staphylococcus aureus [1] = assay: Antibacterial activity against methicillin-sensitive Staphylococcus aureus 12-1 after 18 to 24 hrs by standard twofold serial dilution method; type: functional
Staphylococcus aureus [2] = assay: Antibacterial activity against methicillin-resistant Staphylococcus aureus 12-5 after 18 to 24 hrs by standard twofold serial dilution method; type: functional
Staphylococcus aureus [3] = assay: Antibacterial activity against methicillin-sensitive Staphylococcus aureus 12-5 after 18 to 24 hrs by standard twofold serial dilution method; type: functional
Pseudomonas aeruginosa [4] = assay: Antibacterial activity against Pseudomonas aeruginosa 12-12 after 18 to 24 hrs by standard twofold serial dilution method; type: functional
[5] = test system: Staphylococcus epidermidis; assay: Antibacterial activity against methicillin-sensitive Staphylococcus epidermidis 12-1 after 18 to 24 hrs by standard twofold serial dilution method; type: functional
Klebsiella pneumoniae [6] = assay: Antibacterial activity against Klebsiella pneumoniae 12-2 after 18 to 24 hrs by standard twofold serial dilution method; type: functional
Staphylococcus aureus [7] = assay: Antibacterial activity against methicillin-sensitive Staphylococcus aureus 12-1 infected in mouse dosed orally twice at 0 and 6 hrs after infection; type: functional; conditions: 12-1, po
Klebsiella pneumoniae [8] = assay: Antibacterial activity against extended-spectrum beta-lactamase producin Klebsiella pneumoniae 12-3 after 18 to 24 hrs by standard twofold serial dilution method; type: functional
Streptococcus pneumoniae [9] = assay: Antibacterial activity against Streptococcus pneumoniae 12-10 infected in mouse dosed orally twice at 0 and 6 hrs after infection; type: functional; conditions: 12-10, po
Escherichia coli [10] = assay: Antibacterial activity against extended-spectrum beta-lactamase producing Escherichia coli 12-14 after 18 to 24 hrs by standard twofold serial dilution method; type: functional
[11] = test system: Staphylococcus epidermidis; assay: Antibacterial activity against methicillin-sensitive Staphylococcus epidermidis 12-8 after 18 to 24 hrs by standard twofold serial dilution method; type: functional
Escherichia coli [12] = assay: Antibacterial activity against Escherichia coli ATCC 25922 after 18 to 24 hrs by standard twofold serial dilution method; type: functional
Pseudomonas aeruginosa [13] = assay: Antibacterial activity against Pseudomonas aeruginosa 12-14 after 18 to 24 hrs by standard twofold serial dilution method; type: functional
Staphylococcus aureus [14] = assay: Antibacterial activity against methicillin-sensitive Staphylococcus aureus 12-4 after 18 to 24 hrs by standard twofold serial dilution method; type: functional
Escherichia coli [15] = assay: Antibacterial activity against extended-spectrum beta-lactamase producing Escherichia coli 12-2 after 18 to 24 hrs by standard twofold serial dilution method; type: functional
Streptococcus pneumoniae [16] = assay: Antibacterial activity against Streptococcus pneumoniae 12-18 after 18 to 24 hrs by standard twofold serial dilution method; type: functional
[17] = test system: Staphylococcus epidermidis; assay: Antibacterial activity against methicillin-resistant Staphylococcus epidermidis 12-1 infected in mouse dosed orally twice at 0 and 6 hrs after infection; type: functional; conditions: 12-1, po
[18] = test system: Staphylococcus epidermidis; assay: Antibacterial activity against methicillin-resistant Staphylococcus epidermidis 12-6 after 18 to 24 hrs by standard twofold serial dilution method; type: functional
Staphylococcus aureus [19] = assay: Antibacterial activity against Staphylococcus aureus ATCC 25923 after 18 to 24 hrs by standard twofold serial dilution method; type: functional
Klebsiella pneumoniae [20] = assay: Antibacterial activity against Klebsiella pneumoniae 12-1 infected in mouse dosed orally twice at 0 and 6 hrs after infection; type: functional; conditions: 12-1, po
Klebsiella pneumoniae [21] = assay: Antibacterial activity against extended-spectrum beta-lactamase producin Klebsiella pneumoniae 12-14 after 18 to 24 hrs by standard twofold serial dilution method; type: functional
Escherichia coli [22] = assay: Antibacterial activity against Escherichia coli 12-1 after 18 to 24 hrs by standard twofold serial dilution method; type: functional
Staphylococcus aureus [23] = assay: Antibacterial activity against methicillin-resistant Staphylococcus aureus 12-5 infected in mouse dosed orally twice at 0 and 6 hrs after infection; type: functional; conditions: 12-5, po
Klebsiella pneumoniae [24] = assay: Antibacterial activity against Klebsiella pneumoniae 12-4 after 18 to 24 hrs by standard twofold serial dilution method; type: functional
[25] = test system: Mycobacterium tuberculosis; assay: Antimycobacterial activity against Mycobacterium tuberculosis H37Rv ATCC 27294 by MABA method; type: functional
[26] = Solubility of the compound; type: physicochemical
Klebsiella pneumoniae [27] = assay: Antibacterial activity against extended-spectrum beta-lactamase producin Klebsiella pneumoniae 12-4 after 18 to 24 hrs by standard twofold serial dilution method; type: functional
Staphylococcus aureus [28] = assay: Antibacterial activity against methicillin-resistant Staphylococcus aureus 12-4 after 18 to 24 hrs by standard twofold serial dilution method; type: functional
[29] = test system: Staphylococcus epidermidis; assay: Antibacterial activity against methicillin-resistant Staphylococcus epidermidis 12-1 after 18 to 24 hrs by standard twofold serial dilution method; type: functional
Staphylococcus aureus [30] = assay: Antibacterial activity against methicillin-sensitive Staphylococcus aureus 12-2 after 18 to 24 hrs by standard twofold serial dilution method; type: functional
Escherichia coli [31] = assay: Antibacterial activity against extended-spectrum beta-lactamase producing Escherichia coli 12-15 after 18 to 24 hrs by standard twofold serial dilution method; type: functional
Klebsiella pneumoniae [32] = assay: Antibacterial activity against Klebsiella pneumoniae 12-1 after 18 to 24 hrs by standard twofold serial dilution method; type: functional
Escherichia coli [33] = assay: Antibacterial activity against Escherichia coli 12-1 infected in mouse dosed orally twice at 0 and 6 hrs after infection; type: functional; conditions: 12-1, po
Streptococcus pneumoniae [34] = assay: Antibacterial activity against Streptococcus pneumoniae ATCC 49619 after 18 to 24 hrs by standard twofold serial dilution method; type: functional
Escherichia coli [35] = assay: Antibacterial activity against extended-spectrum beta-lactamase producing Escherichia coli 12-3 after 18 to 24 hrs by standard twofold serial dilution method; type: functional
[36] = test system: Staphylococcus epidermidis; assay: Antibacterial activity against methicillin-sensitive Staphylococcus epidermidis 12-6 after 18 to 24 hrs by standard twofold serial dilution method; type: functional
Staphylococcus aureus [37] = assay: Antibacterial activity against methicillin-resistant Staphylococcus aureus 12-2 after 18 to 24 hrs by standard twofold serial dilution method; type: functional
Klebsiella pneumoniae [38] = assay: Antibacterial activity against extended-spectrum beta-lactamase producin Klebsiella pneumoniae 12-7 after 18 to 24 hrs by standard twofold serial dilution method; type: functional
[39] = test system: Staphylococcus epidermidis; assay: Antibacterial activity against methicillin-sensitive Staphylococcus epidermidis 12-3 after 18 to 24 hrs by standard twofold serial dilution method; type: functional

Compound	MIC (Staphylococcus aureus [1]) [mg/L]	MIC (Staphylococcus aureus [2]) [mg/L]	MIC (Staphylococcus aureus [3]) [mg/L]	MIC (Pseudomonas aeruginosa [4]) [mg/L]	MIC [5] [mg/L]	MIC (Klebsiella pneumoniae [6]) [mg/L]	MIC (Klebsiella pneumoniae [8]) [mg/L]	MIC (Escherichia coli [10]) [mg/L]	MIC [11] [mg/L]	MIC (Escherichia coli [12]) [mg/L]	MIC (Pseudomonas aeruginosa [13]) [mg/L]	MIC (Staphylococcus aureus [14]) [mg/L]	MIC (Escherichia coli [15]) [mg/L]	MIC (Streptococcus pneumoniae [16]) [mg/L]	MIC [18] [mg/L]	MIC (Staphylococcus aureus [19]) [mg/L]	MIC (Klebsiella pneumoniae [21]) [mg/L]	MIC (Escherichia coli [22]) [mg/L]	MIC (Klebsiella pneumoniae [24]) [mg/L]	MIC [25] [mg/L]	further results
CO/N=C1/CCN(c2c(F)cc3c(=O)c(C(=O)O)cn([C@@H]4C[C@@H]4F)c3c2OC)CC1N (stereo partly drawn)	< 0.008	2 (≈ 4.58 µM)	< 0.008	4 (≈ 9.17 µM)	< 0.008	0.5 (≈ 1.15 µM)	16 (≈ 36.7 µM)	16 (≈ 36.7 µM)	0.25 (≈ 0.573 µM)	0.06 (≈ 0.137 µM)	4 (≈ 9.17 µM)	< 0.008	32 (≈ 73.3 µM)	1 (≈ 2.29 µM)	1 (≈ 2.29 µM)	0.015 (≈ 0.0344 µM)	64 (≈ 147 µM)	0.5 (≈ 1.15 µM)	0.5 (≈ 1.15 µM)	0.25 (≈ 0.573 µM)	ED50 (Staphylococcus aureus [7]): 11.4 mg/kg; ED50 (Streptococcus pneumoniae [9]): 25.3 mg/kg; ED50 [17]: 25.4 mg/kg; ED50 (Klebsiella pneumoniae [20]): 21.1 mg/kg; ED50 (Staphylococcus aureus [23]): 26 mg/kg; solubility [26]: 3.59 mg/mL (≈ 8230 µM); MIC (Klebsiella pneumoniae [27]): 16 mg/L (≈ 36.7 µM); MIC (Staphylococcus aureus [28]): 2 mg/L (≈ 4.58 µM); MIC [29]: 0.5 mg/L (≈ 1.15 µM); MIC (Staphylococcus aureus [30]): < 0.008 mg/L; MIC (Escherichia coli [31]): 32 mg/L (≈ 73.3 µM); MIC (Klebsiella pneumoniae [32]): 0.25 mg/L (≈ 0.573 µM); ED50 (Escherichia coli [33]): 12.1 mg/kg; MIC (Streptococcus pneumoniae [34]): 0.125 mg/L (≈ 0.286 µM); MIC (Escherichia coli [35]): 32 mg/L (≈ 73.3 µM); MIC [36]: < 0.008 mg/L; MIC (Staphylococcus aureus [37]): 2 mg/L (≈ 4.58 µM); MIC (Klebsiella pneumoniae [38]): 2 mg/L (≈ 4.58 µM); MIC [39]: < 0.008 mg/L
CCO/N=C1/CN(c2c(F)cc3c(=O)c(C(=O)O)cn([C@@H]4C[C@@H]4F)c3c2OC)CC1CN (stereo partly drawn)	0.25 (≈ 0.555 µM)	64 (≈ 142 µM)	0.25 (≈ 0.555 µM)	8 (≈ 17.8 µM)	0.25 (≈ 0.555 µM)	4 (≈ 8.88 µM)	> 128	> 128	16 (≈ 35.5 µM)	4 (≈ 8.88 µM)	128 (≈ 284 µM)	0.25 (≈ 0.555 µM)	> 128	4 (≈ 8.88 µM)	> 128	0.015 (≈ 0.0333 µM)	> 128	16 (≈ 35.5 µM)	4 (≈ 8.88 µM)	32 (≈ 71 µM)	MIC (Klebsiella pneumoniae [27]): 128 mg/L (≈ 284 µM); MIC (Staphylococcus aureus [28]): 128 mg/L (≈ 284 µM); MIC [29]: 32 mg/L (≈ 71 µM); MIC (Staphylococcus aureus [30]): 0.25 mg/L (≈ 0.555 µM); MIC (Escherichia coli [31]): > 128 mg/L; MIC (Klebsiella pneumoniae [32]): 4 mg/L (≈ 8.88 µM); MIC (Streptococcus pneumoniae [34]): 4 mg/L (≈ 8.88 µM); MIC (Escherichia coli [35]): > 128 mg/L; MIC [36]: 0.25 mg/L (≈ 0.555 µM); MIC (Staphylococcus aureus [37]): 128 mg/L (≈ 284 µM); MIC (Klebsiella pneumoniae [38]): 32 mg/L (≈ 71 µM); MIC [39]: 2 mg/L (≈ 4.44 µM)
CO/N=C1/CN(c2c(F)cc3c(=O)c(C(=O)O)cn([C@@H]4C[C@@H]4F)c3c2OC)[C@H]1CN	0.125 (≈ 0.296 µM)	4 (≈ 9.47 µM)	0.125 (≈ 0.296 µM)	2 (≈ 4.73 µM)	0.125 (≈ 0.296 µM)	0.5 (≈ 1.18 µM)	64 (≈ 152 µM)	128 (≈ 303 µM)	2 (≈ 4.73 µM)	0.25 (≈ 0.592 µM)	16 (≈ 37.9 µM)	0.06 (≈ 0.142 µM)	64 (≈ 152 µM)	2 (≈ 4.73 µM)	2 (≈ 4.73 µM)	< 0.008	64 (≈ 152 µM)	2 (≈ 4.73 µM)	0.5 (≈ 1.18 µM)	0.5 (≈ 1.18 µM)	MIC (Klebsiella pneumoniae [27]): 16 mg/L (≈ 37.9 µM); MIC (Staphylococcus aureus [28]): 8 mg/L (≈ 18.9 µM); MIC [29]: 2 mg/L (≈ 4.73 µM); MIC (Staphylococcus aureus [30]): 0.125 mg/L (≈ 0.296 µM); MIC (Escherichia coli [31]): 64 mg/L (≈ 152 µM); MIC (Klebsiella pneumoniae [32]): 0.5 mg/L (≈ 1.18 µM); MIC (Streptococcus pneumoniae [34]): 0.25 mg/L (≈ 0.592 µM); MIC (Escherichia coli [35]): 32 mg/L (≈ 75.8 µM); MIC [36]: 0.125 mg/L (≈ 0.296 µM); MIC (Staphylococcus aureus [37]): 8 mg/L (≈ 18.9 µM); MIC (Klebsiella pneumoniae [38]): 2 mg/L (≈ 4.73 µM); MIC [39]: 0.125 mg/L (≈ 0.296 µM)
NCC1CN(c2nc3c(cc2F)c(=O)c(C(=O)O)cn3[C@@H]2C[C@@H]2F)C/C1=N/OCc1ccccc1 (stereo partly drawn)	< 0.008	1 (≈ 2.07 µM)	< 0.008	1 (≈ 2.07 µM)	< 0.008	0.125 (≈ 0.259 µM)	16 (≈ 33.1 µM)	16 (≈ 33.1 µM)	0.125 (≈ 0.259 µM)	< 0.008	1 (≈ 2.07 µM)	< 0.008	64 (≈ 132 µM)	0.25 (≈ 0.517 µM)	2 (≈ 4.14 µM)	< 0.008	32 (≈ 66.2 µM)	0.125 (≈ 0.259 µM)	0.06 (≈ 0.124 µM)	0.5 (≈ 1.03 µM)	ED50 (Staphylococcus aureus [7]): 16.9 mg/kg; solubility [26]: 0.24 mg/mL (≈ 496 µM); MIC (Klebsiella pneumoniae [27]): 16 mg/L (≈ 33.1 µM); MIC (Staphylococcus aureus [28]): 2 mg/L (≈ 4.14 µM); MIC [29]: 0.25 mg/L (≈ 0.517 µM); MIC (Staphylococcus aureus [30]): < 0.008 mg/L; MIC (Escherichia coli [31]): 128 mg/L (≈ 265 µM); MIC (Klebsiella pneumoniae [32]): 0.03 mg/L (≈ 0.0621 µM); ED50 (Escherichia coli [33]): 18 mg/kg; MIC (Streptococcus pneumoniae [34]): 0.03 mg/L (≈ 0.0621 µM); MIC (Escherichia coli [35]): 16 mg/L (≈ 33.1 µM); MIC [36]: < 0.008 mg/L; MIC (Staphylococcus aureus [37]): 1 mg/L (≈ 2.07 µM); MIC (Klebsiella pneumoniae [38]): 1 mg/L (≈ 2.07 µM); MIC [39]: < 0.008 mg/L
